This test has as its system HIF-1α mRNA. Briefly: Real-time quantitative RT-PCR of HIF-1α transcript. The conditions noted are these: 10 nM CCI-779. It is filed as cell-based, human. The method, then:
Total RNA was extracted from SN12C-CSCG, ACHN-CSCG, SN12C-CSCG-VHLshRNA and ACHN-CSCG-VHL shRNA cell lines treated with vehicle or 10 nM of CCI-779 using the RNeasy kit (Qiagen). Two μg of total RNA was used as a template for the production of c DNA through reverse transcription. The reactions were assembled as in a 25 μl final volume as follows: 1 μM primers (random hexamers; Invitrogen), 10 mM DTT, 1X Superscript II buffer, […] of dATP, dCTP, dGTP and dTTP, 10U RNasin, 200 units of Superscript II reverse transcriptase. Each RNA template, primer and nuclease free water were combined and incubated for 10 minutes, then placed in an ice bath. The remaining reaction components were added and each reaction was incubated at 25° C. for 10 minutes, then 42° C. for 60 minutes and finally 70° C. for 15 minutes. Negative control reactions (which contained no RT enzyme) were also assembled. Real-time PCR was performed on an ABI Prism 7700 sequence detector (Applied Biosystems). Primers and specific probes for HIF-1α and 18S were obtained from Assays-on Demand Gene Expression products (Applied Biosystems). […] Threshold cycles (Ct's) for the RT samples were recorded. […] Tracer uptake by the tumors was expressed as the ratio between the maximum intratumoral and mean hepatic counts/pixel. All quantitative values are reported as mean±standard error of the mean (SEM).

Structures are written as SMILES. Entries after “also recorded” stand apart in the source; their conditions may differ.

With `CO[C@H]1C[C@@H]2CC[C@@H](C)[C@@](O)(O2)C(=O)C(=O)N2CCCC[C@H]2C(=O)O[C@H]([C@H](C)C[C@@H]2CC[C@@H](OC(=O)C(C)(CO)CO)[C@H](OC)C2)CC(=O)[C@H](C)/C=C(\C)[C@@H](O)[C@@H](OC)C(=O)[C@H](C)C[C@H](C)/C=C/C=C/C=C/1C` [CCI-779], the “HIF-1α transcript (mRNA) levels” value is “no effect; also recorded: without exerting any effect on transcription; also recorded: did not see any changes”.

The record behind these values is patent US9261498B2, “Biomarker for sensitivity to mTOR inhibitor therapy in kidney cancer” (The Regents of the University of California, priority 2005, dated 2016).
